Values joined by “and” are separate entries in the source; they are usually repeats but may differ in a detail not shown here. Equal values may be shown once. No end group written: not given here.
Experiments:
LAU 50/4D7 = assay: 51Cr release assay with twelve known HLA-A2 binders, peptide specificity of LAU 50/4D7; type: cell-based, human; conditions: HLA-A2+ target cells, peptide added after 51Cr labeling
Procedure: In these assays, following ^51Cr labeling of the HLA-A2^+ target cells, peptides were added and then lysis was determined, as described supra.

T cell clone LAU 50/4D7 = assay: 51Cr release assay, T2 cells pulsed with serial dilutions of peptide, recognition by CTL clone LAU 50/4D7; type: cell-based, human; conditions: for EC50: T2 cells pulsed with peptide, read-out: 50% maximal lysis; for recognition by CTL clone LAU 50/4D7 (in words): 51Cr release assay
Procedure: CTL clone LAU 50/4D7 was used in a ^51Cr release assay using standard methods. In brief, cells of target cell line Me275, which is a melanoma line derived from the same patient as was LAU 50/4D7, were labeled with ^51Cr for one hour at 37° C., as were control cells “T2.” This line, more accurately referred to as “CEMx721.T2,” is described by Salter, et al., Immunogenetics 21:235-248 (1985).
Cells were washed, three times, and then were incubated with the LAU 50/4D7 cells, at various effector:target ratios (0.1/1, 1/1, 10/1, 100/1) Four hours after incubation at 37° C., chromium in the supernatant was measured. Percent specific lysis was calculated as: [formula]
To determine T cell recognition of the peptides, standard ^51Cr release assays were performed using T2 cells pulsed with serial dilutions of each peptide. The peptide dose required to induce half maximal lysis was determined.

HLA-A2 = target: T1, HLA-A2 (Homo sapiens, UniProt P04439, D140Y/D185E/D98H/E176V/E277Q/G131W/G231S/I119V/I121R/I166T/I218V/L300P/L318F/N151K/N90K/P208A/P217A/Q86G/Q94H/R138H/R169H/T345S); assay: functional competition assay for peptide binding to HLA-A2 (inhibition of tyrosinase 368-376 recognition by CTL clone LAU 156/34 on T2 cells); type: cell-based; conditions: for IC50: competitor peptide concentration for 50% inhibition of target cell lysis
T1 construct: using T2 cells, because these express HLA-A2; endogenous in cells; host or cells: T2 cells
Procedure: T cell recognition by clone LAU 50/4D7 and binding to HLA-A2 by these peptides were determined experimentally. Peptide binding to HLA-A2 was determined in a functional competition assay.

T cell clone LAU50/4D7 = assay: lysis assay, T2 cells pulsed with 1 μM peptide, T cell clone LAU50/4D7; type: cell-based, human; conditions: peptide 1 μM, 37° C. 1 hour, T2 targets, 4 hours with T cells
Procedure: In these assays, T2 cells were used as the target, and were incubated with each of the listed peptides, at a concentration of 1 μM, at 37° C. for 1 hour. The T2 cells were then washed to remove excess peptides, and the T cells were incubated with the peptide pulsed target T2 cells for 4 hours at 37° C.

[1] = relative to SEQ ID NO: 1 (=1), peptide dose for half maximal lysis, T2 cells, clone LAU 50/4D7
[2] = second table, similar assays, relative to SEQ ID NO: 1
[3] = relative to SEQ ID NO: 1 (=1), concentration for 50% inhibition of target cell lysis

Compound	recognition of known HLA-A2 presented peptides by LAU 50/4D7 (LAU 50/4D7)	EC50 (T cell clone LAU 50/4D7; clone LAU 50/4D7) [nM]	Relative Recognition (T cell clone LAU 50/4D7; [1])	Relative Recognition (T cell clone LAU 50/4D7; relative to SEQ ID NO: 17 (=1))	Relative Recognition (T cell clone LAU 50/4D7; [2])	IC50 (HLA-A2) [nM]	Relative Binding (HLA-A2; [3])	Relative Binding (HLA-A2; relative to SEQ ID NO: 17 (=1))	Relative Binding (HLA-A2; [2])	% Lysis (T cell clone LAU50/4D7)	recognition by CTL clone LAU 50/4D7 (in words) (T cell clone LAU 50/4D7)	recognition by CTL clone LAU 50/4D7 (in words) (T cell clone LAU 50/4D7; listed as 1)
NY-ESO-1157-165: known HLA-A2 binder peptide	failed to recognize	–	–	–	–	–	–	–	–	–	–	–
CC[C@H](C)[C@H](NC(=O)[C@H](CCCCN)NC(=O)[C@@H]1CCCN1C(=O)[C@H](C)NC(=O)[C@H](C)NC(=O)[C@H](C)N)C(=O)N[C@@H](Cc1ccccc1)C(=O)N[C@@H](C)C(=O)N[C@@H](C)C(=O)O [SEQ ID NO: 6]	–	> 100	10^−5	<10^−5	<10^−5	100	0.2	2	0.2	–	–	–
tyrosinase1-9: known HLA-A2 binder peptide (MLLAVLYCL; UniProt P14679 1-9, looked up, fragment)	failed to recognize	–	–	–	–	–	–	–	–	–	–	–
CC[C@H](C)[C@H](NC(=O)[C@H](CCCCN)NC(=O)[C@H](CCC(=O)O)NC(=O)[C@H](CO)NC(=O)[C@H](C)NC(=O)[C@@H](N)CCCCN)C(=O)N[C@@H](Cc1ccccc1)C(=O)N[C@@H](Cc1ccc(O)cc1)C(=O)N[C@H](C(=O)O)C(C)C [SEQ ID NO: 17, reference compound]	–	0.06	–	–	–	–	–	–	–	70% and 68%	in the same range as that of SEQ ID NO: 1	–
AAAPKAFYA [SEQ ID NO: 5]	–	0.3	0.05	0.2	0.06	200	0.1	1	0.1	–	–	–
AAGPKIFYA [SEQ ID NO: 2]	–	2	0.01	0.03	–	286	0.07	0.7	–	–	–	–
gp100208-217: known HLA-A2 binder peptide (TITDQVPFSV; UniProt P40967 208-217, looked up, fragment)	failed to recognize	–	–	–	–	–	–	–	–	–	–	–
AAAPKIFYA [SEQ ID NO: 1]	–	0.02	1	3	–	20	1	10	–	–	most active	at least equal to the natural peptide
AAAAKIFYA [SEQ ID NO: 3]	–	0.2	0.1	0.3	0.1	133	0.16	1.5	0.16	–	–	–
AAAPAIFYA [SEQ ID NO: 4]	–	> 100	<10^−5	<10^−5	<10^−6	22	0.9	9	0.9	–	–	–
gp100280-288: known HLA-A2 binder peptide	failed to recognize	–	–	–	–	–	–	–	–	–	–	–
AASEKIFYV [SEQ ID NO: 18]	–	0.06	–	1	–	–	–	–	–	–	at least equal to the natural peptide	–
GLYDGMEHL [SEQ ID NO: 35, derives from MAGE-A10; HLA-A2; negative control]	–	–	–	–	–	–	–	–	–	2%	–	–

From patent US20070105779A1, “Isolated, ssx-2 and ssx-2 related peptides useful as hla binders and ctl epitopes, and uses thereof” (priority 2002, published 2007)
